Test results: patent KR20200071421A, “왕귀뚜라미에서 유래한 항균 펩타이드 테레오그릴루신 3 및 그의 조성물” (대한민국(농촌진흥청장), priority 2018, dated 2020)
Peptide text beside a SMILES is read from it.

Tested on: rat erythrocytes
Test: Cytotoxicity to rat erythrocytes (hemolysis, absorbance 550 nm)
Assay type: cell-based
Details: for % 렛 적혈구 파괴능: 37 ℃, 30 min, 0.1 % Triton X-100 = 100 %

SMILES	% 렛 적혈구 파괴능 (12.5 ㎍/ml peptide)	% 렛 적혈구 파괴능 (25 ㎍/ml peptide)	% 렛 적혈구 파괴능 (50 ㎍/ml peptide)	% 렛 적혈구 파괴능 (100 ㎍/ml peptide)	% 렛 적혈구 파괴능 (200 ㎍/ml peptide)	cytotoxicity to erythrocytes, result in words (even at low concentrations)	erythrocyte lysis, result in words (concentrations up to 200 ㎍/ml)
CC[C@H](C)[C@H](NC(=O)CN)C(=O)NCC(=O)N[C@@H](C)C(=O)N[C@H](C(=O)N[C@@H](CC(C)C)C(=O)N[C@@H](CCCCN)C(=O)N[C@H](C(=O)N[C@@H](CC(C)C)C(=O)N[C@H](C(=O)N[C@H](C(=O)NCC(=O)N[C@@H](CC(C)C)C(=O)N1CCC[C@H]1C(=O)N[C@@H](C)C(=O)N[C@@H](CC(C)C)C(=O)N[C@H](C(=O)N[C@@H](CO)C(=O)N[C@@H](Cc1c[nH]c2ccccc12)C(=O)N[C@H](C(=O)N[C@@H](CCCCN)C(=O)N[C@@H](CCCNC(=N)N)C(=O)N[C@@H](CCCCN)C(=O)N[C@@H](CCCNC(=N)N)C(=O)N[C@@H](CCC(N)=O)C(=O)N[C@@H](CCC(N)=O)C(N)=O)[C@@H](C)CC)[C@@H](C)CC)[C@@H](C)O)[C@@H](C)O)C(C)C)C(C)C [멜리틴]	75.8%	83.1%	89.8%	88.3%	91.4%	높은 세포 독성	
CC[C@H](C)[C@H](NC(=O)[C@H](Cc1ccccc1)NC(=O)[C@H](Cc1ccccc1)NC(=O)[C@H](CC(C)C)NC(=O)[C@H](CCCCN)NC(=O)[C@H](CC(N)=O)NC(=O)[C@H](CCCCN)NC(=O)[C@H](Cc1c[nH]c2ccccc12)NC(=O)[C@H](Cc1ccccc1)NC(=O)[C@@H](N)CCSC)C(=O)N[C@H](C(=O)N[C@@H](CCCCN)C(=O)N[C@@H](CCCCN)C(N)=O)C(C)C [Teleogryllusine 3, MFWKNKLFFIVKK-NH2] (H-MFWKNKLFFIVKK-NH2)	0%	0.09%	0.28%	0%	1.22%		파괴능이 미미함
